# Like-named read-outs stand apart in the source and are kept apart here.
# How the values were obtained:
# tobacco plants [1] = test: Nicotine and TSNA levels of field tobacco plants contacted with the compound, versus untreated plants; format: in vivo; conditions: compared to untreated tobacco plants
# Description: To reduce the level of nicotine and/or nitrosamine in a cultivated crop or field of tobacco, a concentrated solution of 2,4-D in water (e.g., a 10% solution) with the wetting agent “Agral 60” (e.g., a 0.0006% v/v miscible oil emulsion) is prepared. A control solution containing the wetting agent without 2,4-D is also prepared. These solutions are diluted to 0.1, 1, 10, or 100 ppm of 2,4-D in the final spray solution. Control and experimental fields of tobacco (e.g., Burley, Virginia Flue, and Oriental varieties in separate test plots cultivated by conventional techniques for the particular varieties) at various ages of maturity (some of which have been topped) are sprayed with parallel dilutions of the wetting agent alone. Plants are then sprayed with the above solutions to the dripping-off point. Plants are allowed to continue growing normally for 14 days. Plants are then harvested and sample leaves (from the same position on the plants of the same age) are quick-frozen using liquid nitrogen. Nicotine levels are measured on these sample leaves using standard techniques.
# A quick drying curing technique or a conventional curing technique particular to the variety being tested is employed to obtain cured leaves (non-green or yellow dried leaves). Conventional TSNA analysis is then performed on the cured leaves and stems and/or portions thereof (e.g., lamina and midrib of the leaf). By following this approach, the amount of 2,4-D to apply to a specific variety of tobacco, for a specific age of plant (topped or not topped) in the field to achieve a reduced nicotine and/or nitrosamine level is readily determined. In the following example, ethylene precursors, such as ethephon, are used to decrease jasmonate-induced nicotine and/or nitrosamine levels in tobacco.
# tobacco plants [2] = conditions: early flowering stage; Fung et al. 1973; cited from earlier work
# lipoxygenase [3] = conditions: potato; Kolomiets et al. 2001; cited from earlier work
# lipoxygenase [4] = conditions: soybean; Creelman 1992; cited from earlier work
# [5] = system: jasmonic acid levels in plants; conditions: Schweizer et al. 1997; cited from earlier work
smiles,measurement,setting,value
"O=C(O)COc1ccc(Cl)cc1Cl [2,4-D, 2,4-Dichlorophenoxyacetic acid]",level of TSNAs in treated tobacco plants,tobacco plants [1],reduced levels
same,level of nicotine in treated tobacco plants,tobacco plants [1],reduced levels
same,harm to tobacco plants,tobacco plants [2],most harmful to tobacco plants during the early flowering stage
COc1ccc2cc([C@H](C)C(=O)O)ccc2c1 [Naproxen],effect on lipoxygenase activity,lipoxygenase [3],inhibit lipoxygenase activity
same,effect on lipoxygenase activity,lipoxygenase [4],inhibit lipoxygenase activity
"O=C(O)c1ccccc1O [salicylic acid, 2-hydroxybenzoic acid]",level of TSNAs in treated tobacco plants,tobacco plants [1],reduced amount
same,level of nicotine in treated tobacco plants,tobacco plants [1],reduced amount
Clc1ccc(N2N=N[C@@H]3[C@@H]4C[C@@H]([C@H]5N=N[C@@H]45)[C@@H]32)cc1 [tetcyclacis],level of TSNAs in treated tobacco plants,tobacco plants [1],reduced amount
same,level of nicotine in treated tobacco plants,tobacco plants [1],reduced amount
same,effect on jasmonic acid levels in plants,[5],inhibit jasmonic acid levels
